Assay results from the NIST ThermoML archive (doi:10.1021/je034251+).

Conditions: for mass density: isochoric method

COC [dimethyl ether]
Conditions | Critical temperature [K] | mass density [kg/m3]
301.82 K, Liquid | – | 654.54
320.08 K, Liquid | – | 623.9
330.63 K, Liquid | – | 604.34
339.47 K, Liquid | – | 585.82
347.34 K, Liquid | – | 567.13
359 K, Liquid | – | 540.45
365.69 K, Liquid | – | 522.25
366.69 K, Gas | – | 66.75
372.15 K, Liquid | – | 503.13
378.81 K, Liquid | – | 479.19
380.95 K, Gas | – | 96.42
384.5 K, Liquid | – | 454.66
390.86 K, Gas | – | 130.05
393.65 K, Liquid | – | 405.87
396.06 K, Gas | – | 161.3
398.21 K, Liquid | – | 361.58
399.34 K, Gas | – | 203.55
400.32 K, Liquid | – | 299.12
400.35 K, Gas | – | 253.84
400.35 K, Liquid | – | 285.01
400.36 K, Gas | – | 264.02
400.36 K, Liquid | – | 278.92
400.38 K, Liquid | – | 276.19
Liquid, Visual observation in an unstirred cell | 400.38 | –

Conditions | Critical density [kg/m3]
Liquid | 272
